Source: ChEMBL document CHEMBL3751821, “The semi-synthesis of novel andrographolide analogues and anti-influenza virus activity evaluation of their derivatives” (Bioorg Med Chem Lett, 2016)
≈ marks a conversion by molar mass, not a printed value.

How the values were obtained:
[1] = (§1) Cytotoxicity against MDCK cells after 72 hrs by MTT assay; format: cell-based, Canis lupus familiaris; settings: dog, MDCK cells; read-out: TC50
Influenza A virus H3N2 = test: Antiviral activity against Influenza A virus H3N2 A3/JINGKE/30/95 infected in MDCK cells assessed as inhibition of virus-induced cytopathic effect after 72 hrs; format: functional, organism-based
MDCK = test: as §1; format: cell-based, Canis lupus familiaris; settings: dog, mdck, 72 h
[2] = Therapeutic index, ratio of TC50 for MDCK cells to IC50 for Influenza A virus H3N2 A3/JINGKE/30/95; format: cell-based; settings: dog, read-out: TI
[3] = Influenza A virus, A3/JINGKE/30/95, MDCK, 72 h, read-out: IC50

SMILES	CC50 at 72 h [1] [µg/mL]	IC50 (Influenza A virus H3N2; mdck)	TC50 (MDCK)	IC50 (Influenza A virus H3N2; [3]) [µg/mL]	selectivity ratio [2]
C[C@@]1(CO)[C@H](O)CC[C@@]2(C)C(CCC3=CCOC3=O)=C(Cn3ccc(=O)[nH]c3=O)CC[C@H]12	> 200	Not Active	–	–	–
C[C@@]1(CO)[C@H](O)CC[C@@]2(C)C(CCC3=CCOC3=O)=C(CNC34CC5CC(CC(C5)C3)C4)CC[C@H]12	> 200	Not Active	–	–	–
C[C@]1(CO)[C@H]2CC=C(Cn3ccc(=O)[nH]c3=O)[C@@H](CCC3=CCOC3=O)[C@]2(C)CC[C@H]1O	–	–	Non-toxic	192 (≈ 431 µM)	–
C[C@]1(CO)[C@H]2CC=C(Cn3ccnc3)[C@@H](CCC3=CCOC3=O)[C@]2(C)CC[C@H]1O	212 (≈ 529 µM)	–	–	201 (≈ 502 µM)	1.05
C[C@]1(CO)[C@H]2CC=C(Cn3cnc4ncnc(N)c43)[C@@H](CCC3=CCOC3=O)[C@]2(C)CC[C@H]1O	524 (≈ 1120 µM)	–	–	192 (≈ 411 µM)	2.72
C[C@]1(CO)[C@H]2CC=C(Cn3cccn3)[C@@H](CCC3=CCOC3=O)[C@]2(C)CC[C@H]1O	122 (≈ 305 µM)	Not Active	–	–	–
C[C@]1(CO)[C@H]2CC=C(Cn3cncn3)[C@@H](CCC3=CCOC3=O)[C@]2(C)CC[C@H]1O	–	Not Active	Non-toxic	–	–
C[C@@]1(CO)[C@H](O)CC[C@@]2(C)C(CCC3=CCOC3=O)=C(CN3CCOCC3)CC[C@H]12	> 200	Not Active	–	–	–
C[C@]1(CO)[C@H]2CC=C(Cn3ccc(N)nc3=O)[C@@H](CCC3=CCOC3=O)[C@]2(C)CC[C@H]1O	491 (≈ 1110 µM)	–	–	186 (≈ 419 µM)	2.64
C[C@]1(CO)[C@H]2CC=C(CN3CCOCC3)[C@@H](CCC3=CCOC3=O)[C@]2(C)CC[C@H]1O	–	Not Active	Non-toxic	–	–
C[C@]1(CO)[C@H]2CC=C(CNCc3ccccc3)[C@@H](CCC3=CCOC3=O)[C@]2(C)CC[C@H]1O	965 (≈ 2190 µM)	–	–	122 (≈ 277 µM)	7.91
Cc1cn(CC2=C(CCC3=CCOC3=O)[C@]3(C)CC[C@@H](O)[C@@](C)(CO)[C@H]3CC2)c(=O)[nH]c1=O	> 200	Not Active	–	–	–
C[C@@]1(CO)[C@H](O)CC[C@@]2(C)C(CCC3=CCOC3=O)=C(Cn3cncn3)CC[C@H]12	> 200	Not Active	–	–	–
Cc1cn(CC2=CC[C@@H]3[C@](C)(CO)[C@H](O)CC[C@@]3(C)[C@@H]2CCC2=CCOC2=O)c(=O)[nH]c1=O	–	–	Non-toxic	201 (≈ 438 µM)	–
C[C@]1(CO)[C@H]2CC=C(CNC34CC5CC(CC(C5)C3)C4)[C@@H](CCC3=CCOC3=O)[C@]2(C)CC[C@H]1O	2380 (≈ 4910 µM)	–	–	161 (≈ 332 µM)	14.8
C[C@@]1(CO)[C@H](O)CC[C@@]2(C)C(CCC3=CCOC3=O)=C(Cn3ccnc3)CC[C@H]12	> 200	Not Active	–	–	–
C[C@@]1(CO)[C@H](O)CC[C@@]2(C)C(CCC3=CCOC3=O)=C(CNCc3ccccc3)CC[C@H]12	> 200	Not Active	–	–	–
C[C@@]1(CO)[C@H](O)CC[C@@]2(C)C(CCC3=CCOC3=O)=C(Cn3ccc(N)nc3=O)CC[C@H]12	> 200	Not Active	–	–	–
C=C1CC[C@@H]2[C@](C)(CO)[C@H](O)CC[C@@]2(C)[C@@H]1CC(C1=CCOC1=O)S(=O)(=O)[O-].[Na+] (some centres not stated)	2280	–	–	176	12.9
C[C@@]12CC[C@@H](O)[C@@](C)(CO)C1CCC(CO)=C2CCC1=CCOC1=O (single isomer, unassigned)	124 (≈ 355 µM)	Not Active	–	–	–
C[C@]1(CO)C2CC=C(CO)[C@@H](CCC3=CCOC3=O)[C@]2(C)CC[C@H]1O (single isomer, unassigned)	678 (≈ 1940 µM)	–	–	197 (≈ 562 µM)	3.44
NC(=O)c1ncn([C@@H]2O[C@H](CO)[C@@H](O)[C@H]2O)n1 [RIBAVIRIN]	3280 (≈ 13400 µM)	–	–	87.7 (≈ 359 µM)	37.4
